Test results from US11498921B1, “Pyrimidine or pyridine compounds, preparation method therefor and pharmaceutical uses thereof” (INVENTISBIO CO., LTD., priority 2014, dated 2022).
Structures can show the parent of a compound that is named as a salt.

Assays:
Format in all cases: cell-based
[1] = tested on: LoVo cells (wild-type EGFR human colon adenocarcinoma); assay: Cell growth inhibition (Cell Titer-Glo), LoVo; conditions: 72 hours drug treatment, 3 nM to 10 μM
Procedure: (§1) Experiment of Cell Growth Inhibition
(§2) The LoVo cell line is a wild-type EGFR human colon adenocarcinoma cell, and is grown in F-12K medium (GIBCO) containing 10% FBS. NCI-H2073 cell line is a wild-type EGFR human non-small cell lung cancer cell and grown in ACL-4 medium containing 10% FBS. The growth rate of NCI-H1975, LoVo and NCI-H2073 cells was detected by Cell Titer-Glo luminescence activity assay (Promega #G7572).
(§3) Briefly, trypsin was used for digesting cells in the logarithmic growth phase. 96-well plates were seeded with 50,000 Lovo or NCI-H2073 cells, 2500-3000 NCI-H1975 cells per well and provided with blank control wells containing only nutrient solution without inoculated cell, and the plates were incubated in a humidified incubator with 5% CO2 at 37° C. […] The concentration of test drug in NCI-H1975 cells was from 0.03 nM to 100 nM, and that in LoVo and NCI-H2073 cells was from 3 nM to 10 μM. The cell culture medium containing the different compounds was then added to a 96-well cell plate in which one cell control well comprising cell culture medium only containing DMSO was provided. After a drug treatment for 72 hours, the cell plates were removed from the incubator and allowed to stand at room temperature for 30 minutes. Next, Cell Titer-Glo reagent was added to the wells and the 96-well cell plate was shaken at room temperature for 10 minutes to induce cell lysis. The 96-well cell plate was placed on the bench for 2 minutes to stabilize the luminescence signal. Finally, the 96-well cell plate was placed in an EnVision Multi-labeled Microplate Reader (PerkinElmer), and the signal was read with an integral time of 0.5 seconds.
(§4) Formula: Percentage of cell growth inhibition %=(maximum signal−compound signal)/(maximum signal−minimum signal)*100%
(§5) The maximal signal was obtained from the cell control well which were treated with the DMSO solution having no any compound;
(§6) The compound signal was obtained from the drug-treated cell wells to which the compound was added;
(§7) The minimum signal was obtained from a blank control well to which no cells and only nutrient solution was added.

[2] = tested on: NCI-H1975 cells (T790M and L858R EGFR mutations); assay: Cell growth inhibition (Cell Titer-Glo), NCI-H1975; conditions: Homo sapiens, 72 hours drug treatment, 0.03 nM to 100 nM
Procedure: as §1, §2, §3, §4, §5, §6, §7

[3] = tested on: NCI-H2073 cells (wild-type EGFR human non-small cell lung cancer); assay: Cell growth inhibition (Cell Titer-Glo), NCI-H2073; conditions: 72 hours drug treatment, 3 nM to 10 μM
Procedure: as §1
as §2, with “The compounds that were preferentially targeted for EGFR targeting certain mutations and relatively weak in wild-type EGFR were identified by determining the growth of cells. The NCI-H1975 cell line is a human non-small cell lung cancer cell containing T790M and L858R EGFR mutations, and the cell is grown in RPMI-1640 medium (GIBCO) containing 10% fetal bovine serum (FBS). The LoVo” for “The LoVo”
Briefly, trypsin was used for digesting cells in the logarithmic growth phase. 96-well plates were seeded with 50,000 Lovo or NCI-H2073 cells, 2500-3000 NCI-H1975 cells per well and provided with blank control wells containing only nutrient solution without inoculated cell, and the plates were incubated in a humidified incubator with 5% CO2 at 37° C. After 24 hours, the DMSO solution of the different compounds was diluted with a cell culture medium at 3.16 times per time to eight different concentrations from high to low levels. The concentration of test drug in NCI-H1975 cells was from 0.03 nM to 100 nM, and that in LoVo and NCI-H2073 cells was from 3 nM to 10 μM. The cell culture medium containing the different compounds was then added to a 96-well cell plate in which one cell control well comprising cell culture medium only containing DMSO was provided. After a drug treatment for 72 hours, the cell plates were removed from the incubator and allowed to stand at room temperature for 30 minutes. Next, Cell Titer-Glo reagent was added to the wells and the 96-well cell plate was shaken at room temperature for 10 minutes to induce cell lysis. The 96-well cell plate was placed on the bench for 2 minutes to stabilize the luminescence signal. Finally, the 96-well cell plate was placed in an EnVision Multi-labeled Microplate Reader (PerkinElmer), and the signal was read with an integral time of 0.5 seconds.
as §4, §5, §6, §7

| SMILES | IC50 [1] | IC50 [2] | IC50 [3] |
| --- | --- | --- | --- |
| C=CC(=O)Nc1cc(Nc2cc(-c3cn(C)c4ccccc34)ncn2)c(OC)cc1N(C)CCN(C)C [44. (HCl)n] | 870 nM | 14 nM | 280 nM |
| [2H]C([2H])([2H])N(CCN(C)C)c1cc(OC)c(Nc2nccc(-n3c(=O)n(C)c4ccccc43)n2)cc1NC(=O)C=C [59. (HCl)n] | 4180 nM | 1.3 nM | 120 nM |
| C=CC(=O)Nc1cc(Nc2nccc(-c3cn(C)c4ccccc34)n2)c(OC)cc1N(C)CCN(CC)CC [8. MsOH] | 1940 nM | 113 nM | 870 nM |
| C=CC(=O)Nc1cc(Nc2nccc(-c3nn(C)c4ccccc34)n2)c(OC)cc1N(C)CCN(C)C [1. (HCl)n] | 2260 nM | 5.4 nM | 230 nM |
| [2H]C([2H])([2H])N(CCN(C)c1cc(OC)c(Nc2nccc(-n3c(=O)n(C)c4ccccc43)n2)cc1NC(=O)C=C)C([2H])([2H])[2H] [58. (HCl)n] | – | 1.6 nM | 116 nM |
| [2H]C([2H])([2H])N(CCN(C)C)c1cc(OC)c(Nc2nccc(-n3c(=O)n(CC)c4ccccc43)n2)cc1NC(=O)C=C [68. (MsOH)2] | – | 0.4 nM | 43 nM |
| C=CC(=O)Nc1cc(Nc2nccc(N3c4ccccc4N(CC)S3(=O)=O)n2)c(OC)cc1N(C)CCN(C)C [111. (MsOH)2] | – | 2.7 nM | 49 nM |
| C=CC(=O)Nc1cc(Nc2nccc(-c3cncc4ccccc34)n2)c(OC)cc1N(C)CCN(C)C [Example 67] | – | 81.7 nM | 4100 nM |
| [2H]C([2H])([2H])N(CCN(C)c1cc(OC)c(Nc2nccc(-n3nnc4ccccc43)n2)cc1NC(=O)C=C)C([2H])([2H])[2H] [64. (HCl)n] | – | 6 nM | 310 nM |
| C=CC(=O)Nc1cc(Nc2nccc(-n3c(=O)n(CC(F)(F)F)c4ccccc43)n2)c(OC)cc1N(C)CCN(C)C [108. (MsOH)2] | – | 5.9 nM | 253 nM |
| C=CC(=O)Nc1cc(Nc2nccc(-c3cn(S(=O)(=O)C4CC4)c4ccccc34)n2)c(OC)cc1N(C)CCN(C)C [103. (MsOH)2] | – | 13.1 nM | 300 nM |
| [2H]C([2H])([2H])N(CCN(C)C)c1cc(OC)c(Nc2nccc(-n3c(=O)n(C([2H])([2H])[2H])c4ccccc43)n2)cc1NC(=O)C=C [76. (MsOH)2] | – | 1 nM | 56 nM |
| [2H]C([2H])([2H])N(CCN(C)c1cc(OC)c(Nc2nccc(-n3c(=O)n(CC)c4ccccc43)n2)cc1NC(=O)C=C)C([2H])([2H])[2H] [69. (MsOH)3] | – | 0.8 nM | 63 nM |
| C=CC(=O)Nc1cc(Nc2nccc(-c3nn(C(C)C)c4ccccc34)n2)c(OC)cc1N(C)CCN(C)C [113. (MsOH)2] | – | 26.5 nM | 595 nM |
| C=CC(=O)Nc1cc(Nc2nccc(-n3c(=O)n(C4CC4)c4ccccc43)n2)c(OC)cc1N(C)CCN(C)C [107. (MsOH)2] | – | 7.4 nM | 185 nM |
| C=CC(=O)Nc1cc(Nc2nccc(-c3cn(CC(F)F)c4ccccc34)n2)c(OC)cc1N(C)CCN(C)C [105. (MsOH)2] | – | 15.7 nM | 543 nM |
| [2H]C([2H])([2H])N(CCN(C)c1cc(OC)c(Nc2nccc(-c3cn(CC)c4ccccc34)n2)cc1NC(=O)C=C)C([2H])([2H])[2H] [72. (MsOH)3] | – | 2.7 nM | 282 nM |
| [2H]C([2H])([2H])N(CCN(C)c1cc(OC)c(Nc2nccc(-n3c(=O)[nH]c4ccccc43)n2)cc1NC(=O)C=C)C([2H])([2H])[2H] [61. (HCl)n] | – | 1.5 nM | 29 nM |
| [2H]C([2H])([2H])N(CCN(C)C)c1cc(OC)c(Nc2nccc(-c3cn(S(C)(=O)=O)c4ccccc34)n2)cc1NC(=O)C=C [71. (MsOH)2] | – | 0.4 nM | 64 nM |
| C=CC(=O)Nc1cc(Nc2nccc(-n3c(=O)n(C(C)C)c4ccccc43)n2)c(OC)cc1N(C)CCN(C)C [106. (MsOH)2] | – | 4.7 nM | 155 nM |
| C=CC(=O)Nc1cc(Nc2nccc(-c3cn(S(=O)(=O)C(C)C)c4ccccc34)n2)c(OC)cc1N(C)CCN(C)C [102. (MsOH)2] | – | 6.4 nM | 170 nM |
